Reference: patent US9498478B2, “Spiro aminic compounds with NK1 antagonist activity” (Rottapharm Biotech Srl, priority 2011, dated 2016)

Target: T1, human NK1 receptor (Homo sapiens, UniProt P25103)
T1 construct: human NK1 receptor endogenously expressed in U373 cells; endogenous in cells; host or cells: U373 (human U373MG astrocytoma) cells
Experiment: Antagonist activity at the human NK1 receptor endogenously expressed in U373 cells, agonist-induced cytosolic Ca2+ mobilization (fluorimetric)
Assay type: cell-based
Conditions: U373 MG, percent inhibition of control response to 3 nM [Sar9,Met(O2)11]-SP at compound concentration 10 μM, read-out: NK1 % inh @10 μM
Procedure: Evaluation of the antagonist activity of compounds at the human NK1 receptor endogenously expressed in U373 cells was determined by measuring their effect on agonist-induced cytosolic Ca2+ ion mobilization using a fluorimetric detection method.
The cells were suspended in DMEM buffer (Invitrogen), then distributed in microplates at a density of 1.10^4 cells/well. The fluorescent probe (Fluo4 NW, Invitrogen) mixed with probenicid in HBSS buffer (Invitrogen) complemented with 20 mM Hepes (Invitrogen) (pH 7.4) was then added into each well and equilibrated with the cells for 60 min at 37° C. then 15 min at 22° C. Thereafter, the assay plates were positioned in a microplate reader (CellLux, PerkinElmer) which was used for the addition of the test compound, reference antagonist or HBSS buffer then 5 min later 3 nM [Sar9,Met(O2)11]-SP or HBSS buffer (basal control), and the measurements of changes in fluorescence intensity which varies proportionally to the free cytosolic Ca2+ ion concentration.
The compounds, dissolved in DMSO and diluted in the medium, have been analysed in the 1 nM-1 μM concentration range (every concentration in duplicate). The antagonistic activity vs receptor NK1 of invention compounds has been expressed as pKb (co-logarithm of the apparent dissociation constant calculated by using the modified Cheng Prusoff equation) or alternatively as a percent of inhibition of the control response to 3 nM [Sar^9,Met(O2)^11]-SP at a compound concentration of 10 μM.
The standard reference antagonist was L 733,060, which was tested in each experiment at several concentrations to generate a concentration-response curve from which its IC50 value is calculated. • Bibliographic reference: EISTETTER, H. R., MILLS, A., BREWSTER, R., ALOUANI, S., RAMBOSSON, C. and KAWASHIMA, E. (1992), Functional characterization of neurokinin-1 receptor on human U373MG astrocytoma cells, Glia, 6: 89.

T1 sequence (P25103 whole entry): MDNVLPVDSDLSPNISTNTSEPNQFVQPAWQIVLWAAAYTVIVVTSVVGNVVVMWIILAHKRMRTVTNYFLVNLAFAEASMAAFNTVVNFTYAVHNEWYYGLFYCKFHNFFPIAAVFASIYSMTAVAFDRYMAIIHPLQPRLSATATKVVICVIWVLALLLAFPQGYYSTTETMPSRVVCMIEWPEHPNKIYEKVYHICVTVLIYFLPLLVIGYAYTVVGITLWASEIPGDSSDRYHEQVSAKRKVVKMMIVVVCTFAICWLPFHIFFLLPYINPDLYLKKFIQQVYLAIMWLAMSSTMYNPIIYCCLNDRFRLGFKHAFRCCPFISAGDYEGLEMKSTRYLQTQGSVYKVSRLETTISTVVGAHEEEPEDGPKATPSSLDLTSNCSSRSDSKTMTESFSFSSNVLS

inhibition at 10 µM	Structure (SMILES)
87%	Cc1ccc(-c2ccccn2)c(C(=O)N2CCC3(CC3)C[C@H]2CNc2ccc(Cl)cn2)c1 [Compound 2, (S)-(5-(((5-chloropyridin-2-yl)amino)methyl)-6-azaspiro[2.5]octan-6-yl)(5-methyl-2-(pyridin-2-yl)phenyl)methanone]
65%	O=C(c1cc(F)ccc1-c1ccccn1)N1CCC2(CC2)C[C@H]1CNc1ccc(Cl)cn1 [Compound 3, (S)-(5-(((5-chloropyridin-2-yl)amino)methyl)-6-azaspiro[2.5]octan-6-yl)(5-fluoro-2-(pyridin-2-yl)phenyl)methanone]
61%	O=C(c1cc(F)ccc1-n1nccn1)N1CCC2(CC2)C[C@H]1CNc1ccc(Cl)cn1 [Compound 4, (S)-(5-(((5-chloropyridin-2-yl)amino)methyl)-6-azaspiro[2.5]octan-6-yl)(5-fluoro-2-(2H-1,2,3-triazol-2-yl)phenyl)methanone]
67%	Cc1ccc(-n2nccn2)c(C(=O)N2CCC3(CC3)C[C@H]2CNc2ccc(C(F)(F)F)cn2)c1 [Compound 5, (S)-(5-methyl-2-(2H-1,2,3-triazol-2-yl)phenyl)(5-(((5-(trifluoromethyl)pyridin-2-yl)amino)methyl)-6-azaspiro[2.5]octan-6-yl)methanone]
61%	Cc1ccc(-n2nccn2)c(C(=O)N2CCC3(CC3)C[C@H]2CNc2ccc(Cl)cn2)c1 [Compound 6, (S)(5-((5-chloropyridin-2-ylamino)methyl)-6-azaspiro[2.5]octan-6-yl)(5-methyl-2-(2H-1,2,3-triazol-2-yl)phenyl)methanone]
87%	Cc1ccc(-c2ncccn2)c(C(=O)N2CCC3(CC3)C[C@H]2CNc2ccc(C(F)(F)F)cn2)c1 [Compound 7, (S)-(5-methyl-2-(pyrimidin-2-yl)phenyl)(5-(((5-(trifluoromethyl)pyridin-2-yl)amino)methyl)-6-azaspiro[2.5]octan-6-yl)methanone]

Same assay, conditions: co-logarithm of apparent dissociation constant by modified Cheng Prusoff equation, agonist 3 nM [Sar9,Met(O2)11]-SP, read-out: pKb NK1 (converted)

Kb	Structure (SMILES)
2.51 nM	O=C(c1cc(Cl)ccc1-c1ncccn1)N1CCC2(CC2)C[C@H]1CNc1ccc(Cl)cn1 [Compound 1, (S)-(5-chloro-2-(pyrimidin-2-yl)phenyl)(5-(((5-chloropyridin-2-yl)amino)methyl)-6-azaspiro[2.5]octan-6-yl)methanone]
5.01 nM	Cc1ccc(-c2ncccn2)c(C(=O)N2CCC3(CC3)C[C@H]2CNc2ccc(Cl)cn2)c1 [Compound 8, (S)-(5-(((5-chloropyridin-2-yl)amino)methyl)-6-azaspiro[2.5]octan-6-yl)(5-methyl-2-(pyrimidin-2-yl)phenyl)methanone]
2.51 nM	O=C(c1cc(F)ccc1-c1ncccn1)N1CCC2(CC2)C[C@H]1CNc1ccc(Cl)cn1 [Compound 9, (S)-(5-(((5-chloropyridin-2-yl)amino)methyl)-6-azaspiro[2.5]octan-6-yl)(5-fluoro-2-(pyrimidin-2-yl)phenyl)methanone]
